# Test results published in patent US11773081B2, “Pharmaceutical composition for preventing or treating wound, comprising indirubin derivative as active ingredient” (CK Regeon Inc., priority 2018, dated 2023).
# “Also recorded” adds a separate entry of the source.
# Key:
# mouse acute wound = test: Wound healing and collagen synthesis in mouse acute wound (Test Example 2); type: in vivo
# Experimental: The wound healing-promoting effect of the indirubin derivatives prepared in Examples 1 and 2, the indirubin derivative of Comparative Example 1 (10) and EGF, known as an existing wound healing agent, as a positive control group was investigated through animal experiments.
# The hair on the back of 7-week-old C3H mouse that entered the resting period was removed and a 1.5×1.5 cm^2 wound was made on the hair-removed region. 20 μL of a vehicle (10% DMSO, 45% ethanol, 18% propylene glycol, 27% water) and the indirubin derivative of Comparative Example 1 (10) were applied to a control group and a comparison group, respectively, once daily for 12 days. For the positive control group, 100 μM EGF was applied once daily for 12 days. For a first test group, 20 μL of the indirubin derivative of Example 2 (A3051) was applied once daily for 12 days. For a second test group, 20 μL of the indirubin derivative of Example 1 (A3334) was applied once daily for 12 days.
# The tissue of each experimental mouse was fixed by immersing in 4% paraformaldehyde, embedded in paraffin and then sliced into 4 μm thickness. The sliced tissue was deparaffinized, rehydrated and then stained with Masson's trichrome and Picrosirius red for evaluation of the degree of collagen synthesis. For Masson's trichrome staining, a slide was placed in Weigert's iron hematoxylin solution for 10 minutes and in Biebrich scarlet-acid fuchsin and aniline blue for 5 minutes each. For Picrosirius red staining, a slide was placed in Weigert's solution for 8 minutes and in Picrosirius red for 1 hour.
# diabetic wound [1] = test: Wound healing effect in diabetic wound animal model (Test Example 8); type: in vivo, mouse
# Experimental: (§1) 3-week-old male C57BL/6N mice (Koatech, South Korea) were used. After accustoming the mice for a week to normal feed, high-fat diet (Product Data—D12492; 60% kcal, hereinafter referred to as HFD) was given for 4 weeks. Then, a diabetes-induced animal model was prepared by intraperitoneally injecting 40 mg/kg streptozocin (Sigma) once daily for a week. The mice were kept in cages maintained at constant temperature (22±2° C.) and relative humidity (40-60%) with light/dark cycles of 12/12 hours.
# 6 mice of the normal control group and 6 mice per test group of the diabetes-induced animal model of Test Example 7 were prepared. The hair on the back was removed and a 1.5×1.5 cm^2 wound was made on the hair-removed region.
# For the normal control group, only 20 μL of an emulsion solution (Kollipore®EL:Tween 80:PEG 400 at a mixing weight ratio of 80:6:14) was applied to the wound site once daily for 14 days. For the negative control group, only 20 μL of the emulsion solution (Kollipore®EL:Tween 80:PEG 400 at a mixing weight ratio of 80:6:14) was applied to the wound site once daily for 14 days. For the test group, 20 μL of A3334 (Example 1) was applied to the wound site once daily for 14 days. Then, the wound site of the animal model was photographed and the wound area was measured on days 0, 1, 3, 7, 10 and 14 (FIG. 10). On day 14, after euthanizing the mouse with carbon dioxide, the wound site tissue was harvested and the histological structure was observed.
# A3334 (Example 1) was prepared by preparing an emulsion solution by mixing Kollipore®EL:Tween 80:PEG 400 at a mixing weight ratio of 80:6:14 and then dissolving the A3334 indirubin derivative synthesized in Example 1 to a concentration of 0.5 mM.
# The wound closure rate (%) was calculated according to Equation 1. Wound closure rate (%)=[initial wound area on day 0−wound area on measurement day]/[initial wound area on day 0]×100 [Equation 1] […]
# diabetic wound [2] = test: Effect of treating diabetic wound (Test Example 9); type: in vivo; settings: diabetes-induced mouse
# Experimental: as §1
# 6 mice of the normal control group and 6 mice per test group of the diabetes-induced animal model of Test Example 7 were prepared. The hair on the back was removed and a 0.8×0.8 cm^2 wound was made on the hair-removed region.
# For the normal control group, only 20 μL of an emulsion solution (Kollipore®EL:Tween 80:PEG 400 at a mixing weight ratio of 80:6:14) was applied to the wound site once daily for 14 days. For the negative control group, only 20 μL of the emulsion solution (Kollipore®EL:Tween 80:PEG 400 at a mixing weight ratio of 80:6:14) was applied to the wound site once daily for 14 days. For the positive control group (VPA), 20 μL of a composition prepared by mixing 500 mM VPA in an emulsion solution was applied to the wound site once daily for 14 days.
# For the first test group, 20 μL of A3334 (Example 1) was applied to the wound site once daily for 14 days. For the second test group, 20 μL of A3051 (Example 2) was applied to the wound site once daily for 14 days. Then, the wound site of each group was photographed and the wound area was measured (FIG. 14). On day 14, after euthanizing the mouse with carbon dioxide, the wound site tissue was harvested and the histological structure was observed.
# Specifically, the wound site tissue obtained from the normal control group, the negative control group, the positive control group or the first or second test group was fixed by immersing in 4% paraformaldehyde, embedded in paraffin and then sliced into 4 μm thickness. The sliced tissue was deparaffinized, rehydrated and then stained with hematoxylin (purple) and eosin (pink) for observation of histological structure.
# Specifically, the wound site tissue obtained from the normal control group, the negative control group, the positive control group or the first or second test group was fixed by immersing in 4% paraformaldehyde, embedded in paraffin and then sliced into 4 μm thickness. The sliced tissue was deparaffinized, rehydrated and then stained with Van Gieson's stain and Masson's trichrome for observation of histological structure. For the Van Gieson's staining, the sliced tissue was immersed in Weigert's solution for 10 minutes and in picrofuchsin solution for 2 minutes. For the Masson's trichrome staining, the sliced tissue was immersed in Weigert's iron hematoxylin solution for 10 minutes and in Biebrich scarlet-acid fuchsin and Aniline blue for 5 minutes each.
# Specifically, the wound site tissue obtained from the normal control group, the negative control group, the positive control group or the first and second test groups was fixed by immersing in 4% paraformaldehyde and angiogenesis was observed.
# [3] = C3H mouse acute wound, once daily for 12 days, vs EGF
compound,measurement,setting,value
"COc1ccc2c(c1)/C(=C1/Nc3ccccc3/C1=N\O)C(=O)N2 [Example 1, 5-methoxylindirubin-3′-oxime]","quantity of collagen (Masson's trichrome, Picrosirius red, van Gieson's stain)","mouse acute wound; C3H mouse acute wound tissue, vs control group, Comparative Example 1, positive control group",remarkably increases the quantity of collagen
same,re-epithelialization of acute wound,mouse acute wound; [3],re-epithelialized comparably to or faster than the positive control group EGF
same,"scar-reducing effect, repair of the epidermal layer of skin",mouse acute wound; [3],repairing the epidermal layer of skin without remaining scars
same,wound repair effect as compared to the positive control group EGF,"mouse acute wound; C3H mouse, 1.5×1.5 cm^2 wound, 20 μL once daily for 12 days, EGF 100 μM, listed as A3334",slightly superior wound repair effect; also recorded: slightly better wound repair effect
same,healing of the wound site (wound closure rate),"diabetic wound [1]; diabetes-induced C57BL/6N mouse, 1.5×1.5 cm^2 wound, 20 μL of 0.5 mM once daily for 14 days",healing of the wound site was promoted similarly to the normal control group
same,re-epithelialization (H&E),"diabetic wound [1]; diabetes-induced mouse, 14 days",fast re-epithelialization
same,"collagen synthesis (Van Gieson's stain, Picrosirius red)","diabetic wound [1]; diabetes-induced mouse, vs normal and negative control group",increased collagen synthesis
same,angiogenesis around the wound site,diabetic wound [2],increased angiogenesis
same,healing of the wound site,"diabetic wound [2]; 0.8×0.8 cm^2 wound, 20 μL once daily for 14 days, VPA 500 mM",healing of the wound site was promoted similarly to the normal control group
same,re-epithelialization (H&E),diabetic wound [2]; 14 days,re-epithelialization occurred quickly
same,"collagen synthesis (Van Gieson's stain, Masson's trichrome)","diabetic wound [2]; vs normal, negative and positive control group (VPA)",increased collagen synthesis
